Source: patent US20250282784A1, “CYTOCHROME BD OXIDASE INHIBITORS AND USES THEREOF” (UNIVERSITY OF NOTRE DAME DU LAC, priority 2022, published 2025)
pIC50: −log10 of the molar value.

Tests used:
[1] = system: M. abscessus ATCC 19977T wild-type (WT); assay: ATP levels in M. abscessus wild-type, 2-fold dose-response; assay type: cell-based, Mycobacterium abscessus; conditions: Mycobacteroides abscessus, read-out: ATP IC50 WT
Method: (§1) The compounds described and provided herein were evaluated for their potential to inhibit Cytochrome BD oxidase in Mycobacterium abscessus. M. abscessus ATCC 19977T wild-type (WT) and deficient for the expression of the cyt-bcc:aa3 (ΔqcrCAB) were treated with a 2-fold dose-response (starting from 40 μM) of the drugs. ATP levels were measured after 6 to 15 hours of incubation using a commercial kit.
(§2) M. abscessus ATCC 19977T wild-type (WT) and deficient for the expression of the cyt-bcc:aa3 (ΔqcrCAB) were treated with a 2-fold dose-response (starting from 40 μM) of the drugs. ATP levels were measured after 6 to 15 hours of incubation using a commercial kit.

[2] = system: M. abscessus ATCC 19977T deficient for the expression of the cyt-bcc:aa3 (ΔqcrCAB); assay: ATP levels in M. abscessus deficient for cyt-bcc:aa3 (ΔqcrCAB), 2-fold dose-response; assay type: cell-based, Mycobacterium abscessus; conditions: Mycobacteroides abscessus, read-out: ATP IC50 ΔgcrCAB
Method: as §1, §2

[3] = system: M. abscessus; assay: Killing of M. abscessus by clofazimine with or without Compound 12 (FIG. 1)

Row | Compound | pIC50 [1] | pIC50 [2] | Synergy with clofazimine to kill M. abscessus ([3]; combination of Compound 12 with clofazimine, FIG. 1) | Type of activity of clofazimine against M. abscessus, tested alone ([3]; clofazimine alone) | Type of activity of clofazimine against M. abscessus in the presence of Compound 12 ([3]; in the presence of Compound 12)
1 | Cc1cc2nc(NCCc3ccc(C(F)(F)F)cc3)c3ccccc3n2n1 [Compound 1, 2-methyl-N-(4-(trifluoromethyl)phenethyl) pyrazolo[1,5-a]quinazolin-5-amine] | < 4.40 | 4.92 |  |  | 
2 | Cc1cc2nc(NC3CC(C)(C)CC(C)(C)C3)c3ccccc3n2n1 [Compound 2, 2-methyl-N-(3,3,5,5-tetramethylcyclohexyl) pyrazolo[1,5-a] quinazolin-5-amine] | < 4.40 | < 4.40 |  |  | 
3 | Cc1cc2nc(NC3CCC(F)(F)CC3)c3ccccc3n2n1 [Compound 3, N-(4,4-difluorocyclohexyl)-2-methylpyrazolo[1,5-a] quinazolin-5-amine] | < 4.40 | 4.70 |  |  | 
4 | Cc1cc2nc(NC34CC5CC(CC(C5)C3)C4)c3ccccc3n2n1 [Compound 4, N-((3s,5s,7s)-adamantan-1-yl)-2-methylpyrazolo[1,5-a] quinazolin-5-amine] | < 4.40 | 5.01 |  |  | 
5 | Cc1cc2nc(NC3CCCCC3)c3ccccc3n2n1 [Compound 5, N-cyclohexyl-2-methylpyrazolo[1,5-a] quinazolin-5-amine] | < 4.40 | 5.16 |  |  | 
6 | Cc1cc2nc(NCc3ccc(N4CCN(c5ccc(F)cc5)CC4)cc3)c3ccccc3n2n1 [Compound 6, N-(4-(4-(4-fluorophenyl)piperazin-1-yl)benzyl)-2-methylpyrazolo[1,5-a] quinazolin-5-amine] | < 4.40 | < 4.40 |  |  | 
7 | Cc1cc2nc(Cl)c3ccccc3n2n1 [Compound 7, S-chloro-2-methylpyrazolo[1,5-a] quinazoline] | < 4.40 | < 4.40 |  |  | 
8 | Cc1cc2nc(NC3CCCC3)c3ccccc3n2n1 [Compound 8, N-cyclopentyl-2-methylpyrazolo[1,5-a] quinazolin-5-amine] | < 4.40 | 4.82 |  |  | 
9 | Cc1cc2nc(NC3CCCCCCC3)c3ccccc3n2n1 [Compound 9, N-cyclooctyl-2-methylpyrazolo[1,5-a] quinazolin-5-amine] | < 4.40 | 4.59 |  |  | 
10 | Cc1cc2nc(NC3CCCCCC3)c3ccccc3n2n1 [Compound 12, N-cycloheptyl-2-methylpyrazolo[1,5-a] quinazolin-5-amine] | < 4.40 | 4.76 | synergizes with clofazimine to kill M. abscessus |  | 
11 | Cc1cc2nc(Nc3ccc(Oc4ccc(C(F)(F)F)cc4)cc3)c3ccccc3n2n1 [Compound 14, 2-methyl-N-(4-(4-(trifluoromethyl)phenoxy)phenyl)pyrazolo[1,5-a] quinazolin-5-amine] | < 4.40 | < 4.40 |  |  | 
12 | Cc1cc2nc(N[C@H]3CCC[C@@H](c4ccc(C(F)(F)F)cc4)C3)c3ccccc3n2n1 [Compound 15A, 2-methyl-N-((1S,3R)-3-(4-(trifluoromethyl)phenyl)cyclohexyl)pyrazolo[1,5-a] quinazolin-5-amine] | < 4.40 | 5.18 |  |  | 
13 | FC(F)(F)c1ccc([C@@H]2CCC[C@H](Nc3nc4ccnn4c4ccccc34)C2)cc1 [Compound 16A, N-((1S,3R)-3-(4-(trifluoromethyl)phenyl)cyclohexyl)pyrazolo[1,5-a] quinazolin-5-amine] | < 4.40 | 4.48 |  |  | 
14 | Cc1cc2nc(NC3CC4(CCC4)C3)c3ccccc3n2n1 [Compound 17, 2-methyl-N-(spiro[3.3]heptan-2-yl)pyrazolo[1,5-a] quinazolin-5-amine] | < 4.40 | 5.49 |  |  | 
15 | Cc1cc2nc(NC3CCC3)c3ccccc3n2n1 [Compound 18, N-cyclobutyl-2-methylpyrazolo[1,5-a] quinazolin-5-amine] | < 4.40 | 5.01 |  |  | 
16 | Cc1cc2nc(N[C@@H]3C[C@H]3c3ccc(F)c(F)c3)c3ccccc3n2n1 [Compound 19A, N-((1R,2S)-2-(3,4-difluorophenyl)cyclopropyl)-2-methylpyrazolo[1,5-a] quinazolin-5-amine] | < 4.40 | 4.73 |  |  | 
17 | Cc1cc2nc(NCC3CCCCC3)c3ccccc3n2n1 [Compound 21, N-(cyclohexylmethyl)-2-methylpyrazolo[1,5-a] quinazolin-5-amine] | < 4.40 | 4.92 |  |  | 
18 | Cc1cc2nc(NCC3CC3)c3ccccc3n2n1 [Compound 22, N-(cyclopropylmethyl)-2-methylpyrazolo[1,5-a] quinazolin-5-amine] | < 4.40 | 4.71 |  |  | 
19 | Cc1cc2nc(NC3CCC(C(F)(F)F)CC3)c3ccccc3n2n1 (centres unmarked) [Compound 23, 2-methyl-N-(4-(trifluoromethyl)cyclohexyl) pyrazolo[1,5-a] quinazolin-5-amine] | < 4.40 | 5.05 |  |  | 
20 | Cc1cc2nc(NC3CCC(C)CC3)c3ccccc3n2n1 (centres unmarked) [Compound 24, 2-methyl-N-(4-methylcyclohexyl)pyrazolo [1,5-a]quinazolin-5-amine] | < 4.40 | 5.04 |  |  | 
21 | Cc1cc2nc(NC3CCC(C(C)C)CC3)c3ccccc3n2n1 (centres unmarked) [Compound 25] | < 4.40 | 5.59 |  |  | 
22 | Cc1cc2nc(NC3CCC(C(C)(C)C)CC3)c3ccccc3n2n1 (centres unmarked) [Compound 26, N-(4-(tert-butyl)cyclohexyl)-2-methylpyrazolo[1,5-a] quinazolin-5-amine] | < 4.40 | 5.36 |  |  | 
23 | CC(C)/N=c1\cc2n(-c3ccc(Cl)cc3)c3ccccc3nc-2cc1Nc1ccc(Cl)cc1 [clofazimine, reference compound] |  |  |  | bacteriostatic | bactericidal
